Source: patent EP2653156A1, “Pharmaceutical emulsion composition and use thereof” (College of Pharmacy of Taif University, priority 2012, dated 2013)

Assay: Particle size distribution of insulin and/or L-arginine solutions by photon correlation spectroscopy (Malvern Zetasizer Nano-ZS)
Assay type: physicochemical
Conditions: for Median particle size D(i), Stability in form of particle size / Median particle size D(i): by intensity; for Median particle size D(i), Stability in form of particle size / Median particle size D(i) / Median particle size (n, 0.5) D(n), Stability in form of particle size / Median particle size (n, 0.5) D(n): unit nm; for Median particle size (n, 0.5) D(n), Stability in form of particle size / Median particle size (n, 0.5) D(n): by number
Procedure: Determination of the particle size distribution of Insulin and/or L-arginine by number as D (n, 0.5) and by intensity as D (i, 0.5) using nanosizer
The particle size distribution of two separate solutions of insulin (1 U/ml) prepared using 0.1 M HCl and L-arginine (1 mg/ml) prepared in distilled water was determined. In addition, a mixture of particles prepared by mixing insulin and L-arginine previous solutions in 1:1 v/v ratio was assessed by photon correlation spectroscopy using a Malvern Zetasizer Nano-ZS series (Malvern Instruments, UK). Collective 10 readings were performed three times on a sample at 25 °C with a detection angle of 173°. The median and standard deviations were calculated by the instrument. The viscosity was determined using a Vibro viscometer (SV-10, A&D Company, Japan) at 25°C.

[1] = Table 1 (by number), Room temp for 24 hr
[2] = Table 1 (by number), stability at 50°C for 2 hrs
[3] = Table 1 (by number), stability at 50 °C for 24 hrs
[4] = Table 2 (by intensity), Room temp for 24 hr
[5] = Table 2 (by intensity), stability at 50 °C for 2 hrs
[6] = Table 2 (by intensity), stability at 50°C for 24 hrs

Structure (SMILES)	Pdl [1]	Pdl [2]	Pdl [3]	Pdl [4]	Pdl [5]	Pdl [6]	Median particle size D(i), Stability in form of particle size (50 °C for 2 hrs) [nm]	Median particle size D(i), Stability in form of particle size (50°C for 24 hrs) [nm]	Median particle size D(i) (Room temp for 24 hr) [nm]	Median particle size (n, 0.5) D(n), Stability in form of particle size (50°C for 2 hrs) [nm]	Median particle size (n, 0.5) D(n), Stability in form of particle size (50 °C for 24 hrs) [nm]	Median particle size (n, 0.5) D(n) (Room temp for 24 hr) [nm]	particle size (in the aqueous solution)
N=C(N)NCCC[C@H](N)C(=O)O [L-arginine (10mg/ml), L-arginine]	0.442	0.522	0.436	0.442	0.522	0.436	174	126	129	85.8	80.6	109	–
N=C(N)NCCC[C@H](N)C(=O)O [L-arginine (1 mg/ml), L-arginine]	0.474	0.517	0.31	0.474	0.517	0.31	115	148	122	102	93.8	74.8	100-150 nm
